Data on one molecule can be found in patent US20190275033A1 (Boehringer Ingelheim International GmbH, priority 2016, published 2019).

In experiment [1] the test system is animal models of lung fibrosis. Put plainly: Three animal models of lung fibrosis. The experiment is classed as in vivo.
In another experiment the test system is human lung fibroblast. Put plainly: Human lung fibroblast contraction. The experiment is classed as cell-based. Particulars: clinically relevant concentrations.
In experiment [2] the test system is primary human lung fibroblasts from IPF patients. Particulars: cited from earlier work.
The next experiment addresses T1, PDGFR-α (Homo sapiens, UniProt P16234).
T1 construct: endogenous in cells; host or cells: normal human lung fibroblasts
The conditions noted are these: normal human lung fibroblasts in vitro; cited from earlier work.

For experiment [3], the system named is collagen-induced arthritis (CIA). Put plainly: Mouse model of collagen-induced arthritis (CIA). Particulars: treatment started 13 days after induction, continued for 5 weeks. Type of experiment: in vivo.
Experiment [4] relates to lung fibroblasts from patients with IPF. The conditions noted are these: cited from earlier work.
[5] abbreviates: preventive or therapeutic dosing regimen.
[6] abbreviates: lung fibroblasts from patients with IPF.

T1 sequence (P16234 24-1089): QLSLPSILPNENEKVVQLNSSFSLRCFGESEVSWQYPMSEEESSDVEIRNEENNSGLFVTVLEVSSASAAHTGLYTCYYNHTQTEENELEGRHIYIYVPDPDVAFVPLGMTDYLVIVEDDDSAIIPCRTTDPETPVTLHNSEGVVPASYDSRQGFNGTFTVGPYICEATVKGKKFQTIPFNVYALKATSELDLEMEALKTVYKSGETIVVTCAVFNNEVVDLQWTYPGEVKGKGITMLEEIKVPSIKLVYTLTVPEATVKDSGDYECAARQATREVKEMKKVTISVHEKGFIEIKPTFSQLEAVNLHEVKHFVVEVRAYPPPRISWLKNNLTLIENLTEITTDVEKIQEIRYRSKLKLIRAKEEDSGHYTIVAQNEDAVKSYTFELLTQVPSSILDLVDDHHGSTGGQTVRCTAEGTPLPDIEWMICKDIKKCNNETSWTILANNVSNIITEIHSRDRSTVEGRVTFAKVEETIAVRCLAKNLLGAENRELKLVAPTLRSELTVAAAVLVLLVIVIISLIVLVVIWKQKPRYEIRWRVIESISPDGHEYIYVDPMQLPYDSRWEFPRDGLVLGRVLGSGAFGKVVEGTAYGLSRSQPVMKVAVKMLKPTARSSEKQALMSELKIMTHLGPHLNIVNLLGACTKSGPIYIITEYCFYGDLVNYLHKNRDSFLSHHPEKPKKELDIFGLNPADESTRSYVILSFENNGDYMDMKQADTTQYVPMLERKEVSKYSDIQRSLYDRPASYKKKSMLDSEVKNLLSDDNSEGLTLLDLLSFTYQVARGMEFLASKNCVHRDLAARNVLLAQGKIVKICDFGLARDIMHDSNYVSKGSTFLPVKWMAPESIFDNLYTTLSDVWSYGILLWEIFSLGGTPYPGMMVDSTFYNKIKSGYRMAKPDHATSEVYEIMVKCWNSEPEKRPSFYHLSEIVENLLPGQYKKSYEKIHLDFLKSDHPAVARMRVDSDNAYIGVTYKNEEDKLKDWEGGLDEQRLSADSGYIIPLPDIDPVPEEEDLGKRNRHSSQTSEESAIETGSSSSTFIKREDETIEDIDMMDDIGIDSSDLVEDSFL

With `COC(=O)c1ccc2c(c1)NC(=O)/C2=C(\Nc1ccc(N(C)C(=O)CN2CCN(C)CC2)cc1)c1ccccc1` [nintedanib, 3-Z-[1-(4-(N-((4-methyl-piperazin-1-yl)-methylcarbonyl)-N-methyl-amino)-anilino)-1-phenyl-methylene]-6-methoxycarbonyl-2-indolinone], in experiment [1] (in vivo), the “accumulation of lymphocytes in the bronchoalveolar lavage fluid (BALF)” value is “attenuated”, the “chemokine CXCL1/KC in lung tissue” value is reported as “reduced”, the “collagen content in lung tissue” value is given as “reduced” and the “interleukin (IL)-10 in lung tissue” value is on record as “reduced”. For the same molecule, in experiment [1] (in vivo), the “mRNA expression of procollagen 1” value is recorded as “blocked”, the “mRNA expression of transforming growth factor (TGF)-β1” value was “blocked” and the “tissue inhibitor of metalloproteinases (TIMP)-1 in lung tissue” value is given as “reduced”. Also, in experiment [1] (setting [5]), the “histology score of fibrosis in lung sections” value was “reduced”, the “histology score of granuloma formation in lung sections” value was “reduced” and the “histology score of inflammation in lung sections” value is listed as “reduced”. In the experiment with human lung fibroblast, the “human lung fibroblast contraction” value is reported as “inhibits”. Further, the “TGF-β-induced fibroblast to myofibroblast transformation” value in experiment [2] was “inhibited”. The PDGFR-α activation entry on PDGFR-α is on record as “inhibit”. The arthritis score entry in experiment [3] is listed as “no attenuating effect”. Moreover, in experiment [4], the “migration of human lung fibroblasts from patients with IPF” value is given as “inhibited”. For the same molecule, in experiment [4] (setting [6]), the FGF-2-stimulated migration result was “attenuated” and the PDGF-stimulated migration result was “attenuated”.
